{
  "source": "the SangsterLogP compilation",
  "data": [
    {"experiment": "method code SF-HPLC, from DOI: 10.1016/s0928-0987(01)00163-4, PMID: 11500258", "settings": "pH 7.4", "values": [
      {"compound": "CC(C(=O)OCCOCCOCCOCCO)c1cccc(C(=O)c2ccccc2)c1", "note": "(stereo not drawn)", "logD": 3.6},
      {"compound": "O=C(Cc1ccccc1Nc1c(Cl)cccc1Cl)OCCOCCOCCOCCOCCOCCO", "logD": 2.6},
      {"compound": "COc1ccc2cc(C(C)C(=O)OCCOCCOCCOCCOCCO)ccc2c1", "note": "(stereo not drawn)", "logD": 3.2},
      {"compound": "CC(C(=O)OCCOCCOCCOCCOCCOCCO)c1cccc(C(=O)c2ccccc2)c1", "note": "(stereo not drawn)", "logD": 3.5},
      {"compound": "CC(C(=O)OCCOCCO)c1cccc(C(=O)c2ccccc2)c1", "note": "(stereo not drawn)", "logD": 3.6},
      {"compound": "O=C(Cc1ccccc1Nc1c(Cl)cccc1Cl)OCCOCCO", "logD": 4.1},
      {"compound": "COc1ccc2cc(C(C)C(=O)OCCOCCOCCO)ccc2c1", "note": "(stereo not drawn)", "logD": 3.7},
      {"compound": "O=C(Cc1ccccc1Nc1c(Cl)cccc1Cl)OCCOCCOCCO", "logD": 3.9},
      {"compound": "CC(C(=O)OCCOCCOCCOCCOCCO)c1cccc(C(=O)c2ccccc2)c1", "note": "(stereo not drawn)", "logD": 3.9},
      {"compound": "O=C(Cc1ccccc1Nc1c(Cl)cccc1Cl)OCCOCCOCCOCCO", "logD": 3.5},
      {"compound": "COc1ccc2cc(C(C)C(=O)OCCOCCOCCOCCO)ccc2c1", "note": "(stereo not drawn)", "logD": 3.5},
      {"compound": "COc1ccc2cc(C(C)C(=O)OCCOCCOCCOCCOCCOCCO)ccc2c1", "note": "(stereo not drawn)", "logD": 2.9},
      {"compound": "CC(C(=O)OCCOCCOCCO)c1cccc(C(=O)c2ccccc2)c1", "note": "(stereo not drawn)", "logD": 3.4}
    ]}
  ]
}
